Data as given in patent publication US20240122932A1, “Methods of Treating B-Cell Malignancy Using Bcl-2 Inhibitor” (BeiGene Switzerland GmbH, priority 2021, published 2024).

What was measured:
[1] = tested on: JeKo-1 human mantle cell lymphoma (MCL) subcutaneous xenograft; experiment: JeKo-1 human MCL subcutaneous xenograft model, Bcl-2 inhibitor with BTK inhibitor; format: in vivo, NCG mice; settings: for TGI (%): day 21
Experimental: JeKo-1 cells were maintained as suspension cell cultures at 37° C. in a 5% CO2 atmosphere. Five to six-week-old female NCG mice were purchased from Gempharmatech of Information Technology Center. All animals were maintained under specific pathogen free (SPF) “full barrier” condition with free access to food and water. […] Mice were fed with complete granulated feed with Co60 radiosterilization (Beijing Ke Ao Xie Li Feed Co., Ltd.). All experiments were carried out in accordance with BeiGene's IACUC.
Re-suspended cells were placed on ice prior to inoculation. […] Each animal was injected subcutaneously with 1×10^7 cells in 200 μL of cell suspension in the right front flank via a 26-gauge needle. After implantation, primary tumor volume was measured in two dimensions using a caliper.
Transplanted animals were randomized into 8 groups with 10 mice per group on day 0 according to transplantation sequence and body weight. […] Treatments were administered by oral gavage (p.o.) in a volume of 10 mL/kg body weight. Body weight was assessed immediately before dosing and volume dosed was adjusted accordingly.
(§1) Individual body weight was recorded twice weekly, with mice being monitored daily for clinical signs of toxicity for the duration of the study. Mice were euthanized using carbon dioxide when their tumor volume reached 2,000 mm^3, the tumor was ulcerated, or body weight loss exceeded 20%.
Tumor volume (TV) was calculated using the formula: TV=0.5×(a×b^2) where a and b are the long and short diameters of the tumor, respectively. […] (treated t=treated tumor volume at time t, vehicle t=vehicle tumor volume at time t)

[2] = tested on: RS4;11 Bcl-2G101V KI acute lymphoblastic leukemia (ALL) subcutaneous xenograft; experiment: RS4;11 Bcl-2G101V KI ALL subcutaneous xenograft model; format: in vivo, NCG mice
Experimental: The RS4;11 Bcl-2G101V KI cells are of acute lymphoblastic leukemia (ALL) origin and were screened in house. Cells were grown in RPMI 1640 medium (Corning, Cat #10-040-CVR), supplemented with 10% (v/v) fetal bovine serum (Gibco, Cat #10099-141C), and 100 μg/mL of penicillin and streptomycin (Gibco, Cat #15140-122). […] Five to six-week-old female NCG mice were supplied by GemPharmatech Co., Ltd, Jiangsu, China. All animals were maintained under specific pathogen free (SPF) “full barrier” condition with free access to food and water. Mice were group-housed under a 12 h light:dark cycle (lights on at 08:00 h), at a temperature of 20-26° C. and 37-62% humidity in WC cages (Lingyunboji (Beijing) Technology Co., Ltd.). Mice were fed with complete granulated feed with Co60 radio sterilization (Beijing Ke Ao Xie Li Feed Co., Ltd.).
Re-suspended cells were placed on ice prior to inoculation. The right front flank region of each mouse was cleaned with 75% ethanol prior to cell inoculation. Each animal was injected subcutaneously with 1×10^7 cells in 200 μL of cell suspension in the right front flank via a 26-gauge needle. After implantation, primary tumor volume was measured in two dimensions using a caliper.
Animals were randomly assigned into 7 groups with 8 mice per group according to body weight and tumor volume (around 300 mm^3). The groups consisted of vehicle group, 15, 50 and 100 mg/kg of venetoclax with QD dosing, 15, 50 and 100 mg/kg of Compound 1 with QD dosing. Treatments were administered by oral gavage (p.o.) in a volume of […]. Body weight was assessed immediately before dosing and volume dosed was adjusted accordingly.
as §1
Tumor volume was calculated using the formula: V=0.5×(a×b^2) where a and b are the long and short diameters of the tumor, respectively.

CC(C)c1ccccc1[C@@H]1CCCN1C1CC2(CCN(c3ccc(C(=O)NS(=O)(=O)c4ccc(NCC5CCC(C)(O)CC5)c([N+](=O)[O-])c4)c(Oc4cnc5[nH]ccc5c4)c3)CC2)C1 (stereo partly drawn) [Compound 1, 2-((1H-pyrrolo[2,3-b]pyridin-5-yl)oxy)-N-((4-((((1r,4r)-4-hydroxy-4-methylcyclohexyl)methyl)amino)-3-nitrophenyl)sulfonyl)-4-(2-((S)-2-(2-isopropylphenyl)pyrrolidin-1-yl)-7-azaspiro[3.5]nonan-7-yl)benzamide]
Mean TV (D 21) (mm^3 ± SEM) ([1]; 5 mpk p.o. QD): 1293.3 ± 100.0 mm^3 | Mean TV (D 21) (mm^3 ± SEM) ([1]; 15 mpk p.o. QD): 929.5 ± 73.6 mm^3 | Mean TV (D 21) (mm^3 ± SEM) ([1]; 50 mpk p.o. QD): 927.5 ± 100.6 mm^3 | TGI (%) ([1]; 5 mpk p.o. QD, 5 mg/kg): 29% | TGI (%) ([1]; 15 mpk p.o. QD, 15 mg/kg): 49% | TGI (%) ([1]; 50 mpk p.o. QD, 50 mg/kg): 49%

CC1(C)CCC(CN2CCN(c3ccc(C(=O)NS(=O)(=O)c4ccc(NCC5CCOCC5)c([N+](=O)[O-])c4)c(Oc4cnc5[nH]ccc5c4)c3)CC2)=C(c2ccc(Cl)cc2)C1 [Venetoclax, reference compound]
Mean Tumor Volume (Day 10) (mm^3 ± SEM) ([2]; 15 mg/kg QD × 10 p.o.): 976.6 ± 64.0 mm^3 | TGI (Day 10) ([2]; 15 mg/kg QD × 10 p.o.): 44% | Mean Tumor Volume (Day 10) (mm^3 ± SEM) ([2]; 50 mg/kg QD × 10 p.o.): 711.8 ± 49.7 mm^3 | TGI (Day 10) ([2]; 50 mg/kg QD × 10 p.o.): 65% | Mean Tumor Volume (Day 10) (mm^3 ± SEM) ([2]; 100 mg/kg QD × 10 p.o.): 530.4 ± 75.4 mm^3 | TGI (Day 10) ([2]; 100 mg/kg QD × 10 p.o.): 80%
